The CheMixHub viscosity set

Test: xn = mol fraction of the nth substance listed

COC(=O)CC(C)=O + COC(C)=O
viscosity [mPa·s], 101.33 kPa
Conditions | x1 = 0.0996 | x1 = 0.1998 | x1 = 0.3009 | x1 = 0.397 | x1 = 0.4973 | x1 = 0.5975 | x1 = 0.6969 | x1 = 0.7993 | x1 = 0.9006
298.15 K | 0.448 | 0.52 | 0.596 | 0.688 | 0.798 | 0.915 | 1.044 | 1.202 | 1.373
303.15 K | 0.424 | 0.489 | 0.564 | 0.643 | 0.744 | 0.843 | 0.963 | 1.104 | 1.257
308.15 K | 0.403 | 0.463 | 0.533 | 0.603 | 0.696 | 0.786 | 0.913 | 1.024 | 1.155

OCC(O)CO + CN1CCCC1=O
101 kPa
Conditions | viscosity [mPa·s]
298 K, x2 = 0.078 | 418.4
298 K, x2 = 0.16 | 269.4
298 K, x2 = 0.338 | 72.84
298 K, x2 = 0.433 | 38.94
298 K, x2 = 0.534 | 20.42
298 K, x2 = 0.641 | 11.12
298 K, x2 = 0.754 | 4.23
298 K, x2 = 0.873 | 2.44
303 K, x2 = 0.078 | 289.9
303 K, x2 = 0.16 | 160.5
303 K, x2 = 0.336 | 55.93
303 K, x2 = 0.432 | 30.16
303 K, x2 = 0.533 | 17.83
303 K, x2 = 0.64 | 9.48
303 K, x2 = 0.753 | 3.75
303 K, x2 = 0.872 | 2.26
308 K, x2 = 0.077 | 211.3
308 K, x2 = 0.159 | 118.3
308 K, x2 = 0.335 | 43.4
308 K, x2 = 0.43 | 25.79
308 K, x2 = 0.531 | 15.16
308 K, x2 = 0.638 | 7.7
308 K, x2 = 0.751 | 3.27
308 K, x2 = 0.872 | 2.02
313 K, x2 = 0.077 | 143.4
313 K, x2 = 0.158 | 87.14
313 K, x2 = 0.334 | 35.17
313 K, x2 = 0.43 | 20.73
313 K, x2 = 0.53 | 10.45
313 K, x2 = 0.637 | 6.13
313 K, x2 = 0.751 | 2.91
313 K, x2 = 0.871 | 1.88
318 K, x2 = 0.077 | 106.1
318 K, x2 = 0.158 | 54.08
318 K, x2 = 0.334 | 25
318 K, x2 = 0.429 | 16.1
318 K, x2 = 0.53 | 9.03
318 K, x2 = 0.637 | 5.17
318 K, x2 = 0.75 | 2.68
318 K, x2 = 0.871 | 1.72
323 K, x2 = 0.077 | 83.45
323 K, x2 = 0.158 | 50.16
323 K, x2 = 0.334 | 21.33
323 K, x2 = 0.429 | 13.43
323 K, x2 = 0.53 | 7.11
323 K, x2 = 0.637 | 4.64
323 K, x2 = 0.75 | 2.46
323 K, x2 = 0.871 | 1.6
